Measurements from the supplement of paper PMC10307832.

Experiments:
Assay in all cases: relative viability (nuclei count vs DMSO), 5 days (fraction); higher = more cells survive
[1] = compound: C[As](C)SC[C@H](NC(=O)CC[C@H](N)C(=O)O)C(=O)NCC(=O)O [Darinaparsin] + N=C(N)NC(=N)NCCc1ccccc1 [Phenformin] (partner 250 µM)
Procedure, shortened: (§1)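 Relative viability equals treated-well nuclei counts divided by vehicle-well nuclei counts. Counts came from 4× images of lung cancer cell lines grown in 1536-well plates for 5 days after pin-tool dosing on the day after seeding. Dosing used one drug alone or a fixed anchor-drug dose plus five library-drug doses (not always all listed) in √10 steps, and values are medians of duplicate plates.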

QS11 + Trametinib = compound: C1CC2=C(C1)C=C(C=C2)OC3=NC(=C4C(=N3)N(C=N4)CC5=CC=C(C=C5)C6=CC=CC=C6)N[C@@H](CC7=CC=CC=C7)CO [QS11] + CC(=O)Nc1cccc(-n2c(=O)n(C3CC3)c(=O)c3c(Nc4ccc(I)cc4F)n(C)c(=O)c(C)c32)c1 [Trametinib] (partner 0.02 µM)
Procedure, shortened: as §1

[2] = compound: C[As](C)SC[C@H](NC(=O)CC[C@H](N)C(=O)O)C(=O)NCC(=O)O [Darinaparsin] + CC1(C)CCC(c2ccc(Cl)cc2)=C(CN2CCN(c3ccc(C(=O)NS(=O)(=O)c4ccc(N[C@H](CCN5CCOCC5)CSc5ccccc5)c(S(=O)(=O)C(F)(F)F)c4)cc3)CC2)C1 [Navitoclax] (partner 0.5 µM)
Procedure, shortened: as §1

Darinaparsin + Olaparib = compound: C[As](C)SC[C@H](NC(=O)CC[C@H](N)C(=O)O)C(=O)NCC(=O)O [Darinaparsin] + O=C(c1cc(Cc2n[nH]c(=O)c3ccccc23)ccc1F)N1CCN(C(=O)C2CC2)CC1 [Olaparib] (partner 8 µM)
Procedure, shortened: as §1

| Cell Line | relative viability ([1]; first compound 0.08 µM) | relative viability ([1]; first compound 0.8 µM) | relative viability ([1]; first compound 2.53 µM) | relative viability ([1]; first compound 8 µM) | relative viability (QS11 + Trametinib; first compound 0.08 µM) | relative viability (QS11 + Trametinib; first compound 0.253 µM) | relative viability (QS11 + Trametinib; first compound 0.8 µM) | relative viability (QS11 + Trametinib; first compound 2.53 µM) | relative viability (QS11 + Trametinib; first compound 8 µM) | relative viability ([2]; first compound 0.08 µM) | relative viability ([2]; first compound 0.8 µM) | relative viability ([2]; first compound 2.53 µM) | relative viability ([2]; first compound 8 µM) | relative viability (Darinaparsin + Olaparib; first compound 0.08 µM) | relative viability (Darinaparsin + Olaparib; first compound 0.8 µM) | relative viability (Darinaparsin + Olaparib; first compound 2.53 µM) | relative viability (Darinaparsin + Olaparib; first compound 8 µM) |
| --- | --- | --- | --- | --- | --- | --- | --- | --- | --- | --- | --- | --- | --- | --- | --- | --- | --- |
| NCI-H596 | 0.891 | 0.737 | 0.677 | 0.745 | 0.776 | 0.755 | 0.692 | 0.683 | 0.706 | 1.3 | 1.11 | 0.83 | 1.23 | 0.634 | 0.675 | 0.667 | 0.774 |
| NCI-H647 | 0.62 | 0.479 | 0.474 | 0.696 | 0.472 | 0.428 | 0.411 | 0.575 | 0.544 | 1.42 | 1.09 | 0.981 | 1.04 | 0.681 | 0.601 | 0.382 | 0.604 |
| NCI-H727 | 0.405 | 0.416 | 0.569 | 0.475 | 0.416 | 0.404 | 0.38 | 0.406 | 0.396 | 0.405 | 0.447 | 0.472 | 0.393 | 0.388 | 0.561 | 0.726 | 0.612 |
| NCI-H838 | 0.596 | 0.508 | 0.486 | 0.638 | 0.558 | 0.535 | 0.355 | 0.469 | 0.383 | 1.51 | 1.15 | 1.15 | 1.5 | 1.07 | 0.778 | 0.734 | 0.941 |
| NCI-H1355 | 0.45 | 0.459 | 0.382 | 0.412 | 0.447 | 0.342 | 0.378 | 0.378 | 0.433 | 1.08 | 0.94 | 0.836 | 1.05 | 0.78 | 0.708 | 0.676 | 0.746 |
| NCI-H1395 | 0.457 | 0.471 | 0.409 | 0.459 | 0.935 | 1.04 | 1.19 | 1.01 | 1.03 | 1.15 | 1.06 | 1.03 | 0.902 | 0.457 | 0.441 | 0.407 | 0.404 |
| NCI-H1437 | 0.327 | 0.298 | 0.358 | 0.281 | 0.551 | 0.561 | 0.474 | 0.477 | 0.499 | 1.54 | 1.1 | 0.962 | 1.33 | 0.705 | 0.623 | 0.615 | 0.689 |
| NCI-H1650 | 0.472 | 0.416 | 0.494 | 0.395 | 0.459 | 0.667 | 0.366 | 0.751 | 0.552 | 1.7 | 1.17 | 1.14 | 1.28 | 0.956 | 0.718 | 0.95 | 0.801 |
| NCI-H1651 | 0.351 | 0.302 | 0.298 | 0.357 | 0.855 | 0.887 | 0.761 | 0.856 | 0.922 | 1.11 | 1.01 | 0.863 | 0.999 | 0.192 | 0.18 | 0.18 | 0.159 |
| NCI-H1666 | 0.623 | 0.545 | 0.617 | 0.575 | 0.798 | 0.852 | 0.868 | 0.8 | 0.749 | 1.09 | 0.938 | 1.23 | 1.09 | 0.734 | 0.746 | 0.834 | 0.72 |
| NCI-H1734 | 0.464 | 0.409 | 0.363 | 0.424 | 0.645 | 0.626 | 0.648 | 0.546 | 0.565 | 1.07 | 0.947 | 0.806 | 1.11 | 0.73 | 0.561 | 0.627 | 0.641 |
| NCI-H1755 | 0.671 | 0.598 | 0.545 | 0.632 | 0.747 | 0.755 | 0.54 | 0.681 | 0.618 | 1.08 | 0.967 | 0.941 | 1.2 | 0.915 | 0.774 | 0.848 | 0.899 |
| NCI-H1792 | 0.334 | 0.258 |  | 0.205 |  | 0.514 | 0.39 | 0.312 | 0.306 | 1.03 | 0.652 | 0.393 | 0.665 | 0.412 | 0.496 |  | 0.368 |
| NCI-H1793 | 0.358 | 0.435 | 0.327 | 0.422 | 0.491 | 0.392 | 0.408 | 0.469 | 0.759 | 0.649 | 0.366 | 0.333 | 0.442 | 1 | 0.832 |  | 1.03 |
| NCI-H1915 | 0.404 | 0.373 | 0.359 | 0.375 | 0.292 | 0.292 |  | 0.288 | 0.309 | 0.88 | 0.82 | 0.771 | 0.812 | 0.259 | 0.22 | 0.269 | 0.272 |
| NCI-H1944 | 0.217 | 0.207 | 0.216 | 0.192 | 0.423 | 0.4 |  | 0.349 | 0.353 | 1.06 | 1.07 | 1.04 | 1.06 | 0.458 | 0.44 | 0.363 | 0.404 |

| Cell Line | relative viability ([1]; first compound 0.08 µM) | relative viability ([1]; first compound 0.8 µM) | relative viability ([1]; first compound 2.53 µM) | relative viability ([1]; first compound 8 µM) | relative viability (QS11 + Trametinib; first compound 0.08 µM) | relative viability (QS11 + Trametinib; first compound 0.253 µM) | relative viability (QS11 + Trametinib; first compound 0.8 µM) | relative viability (QS11 + Trametinib; first compound 2.53 µM) | relative viability (QS11 + Trametinib; first compound 8 µM) | relative viability ([2]; first compound 0.08 µM) | relative viability ([2]; first compound 0.8 µM) | relative viability ([2]; first compound 2.53 µM) | relative viability ([2]; first compound 8 µM) | relative viability (Darinaparsin + Olaparib; first compound 0.08 µM) | relative viability (Darinaparsin + Olaparib; first compound 0.8 µM) | relative viability (Darinaparsin + Olaparib; first compound 2.53 µM) | relative viability (Darinaparsin + Olaparib; first compound 8 µM) |
| --- | --- | --- | --- | --- | --- | --- | --- | --- | --- | --- | --- | --- | --- | --- | --- | --- | --- |
| NCI-H1975 | 0.448 | 0.43 | 0.413 | 0.427 | 0.329 | 0.246 | 0.328 | 0.424 | 0.327 | 1.26 | 1.15 | 1.11 | 1.45 | 1.09 | 0.782 | 0.808 | 1.02 |
| NCI-H1993 | 0.523 | 0.441 | 0.524 | 0.508 | 0.57 | 0.532 | 0.442 | 0.508 | 0.522 | 0.801 | 0.836 | 1.04 | 1.16 | 1.06 | 1.01 | 1.1 | 1.08 |
| NCI-H2009 | 0.511 | 0.52 | 0.475 | 0.55 | 0.242 | 0.32 | 0.24 | 0.279 | 0.256 | 1.35 | 1.11 | 1.11 | 1.06 | 0.715 | 0.769 | 0.628 | 0.72 |
| NCI-H2023 | 0.529 | 0.417 | 0.368 | 0.501 | 0.616 | 0.57 | 0.661 | 0.68 | 0.597 | 1.08 | 1.07 | 0.951 | 1.2 | 0.721 | 0.407 | 0.416 | 0.434 |
| NCI-H2085 | 0.852 | 0.797 | 0.706 | 0.747 | 0.512 | 0.483 | 0.43 | 0.513 | 0.508 | 1.36 | 1.18 | 1.09 | 1.2 | 0.866 | 0.775 | 0.792 | 0.745 |
| NCI-H2087 | 0.553 | 0.451 | 0.467 | 0.608 | 0.243 | 0.219 | 0.211 | 0.22 | 0.205 | 1.3 | 1.04 | 1.01 | 1.13 | 0.797 | 0.527 | 0.572 | 0.701 |
| NCI-H2126 | 0.521 | 0.511 | 0.524 | 0.556 | 0.588 | 0.562 | 0.567 | 0.596 | 0.508 | 0.949 | 0.835 | 0.856 | 0.86 | 0.986 | 0.886 | 0.84 | 1.12 |
| NCI-H2170 | 0.429 | 0.427 | 0.424 | 0.464 | 0.93 | 0.962 | 0.728 | 1.01 | 1.04 | 0.615 | 0.524 | 0.559 | 0.69 | 0.722 | 0.662 | 0.614 | 0.543 |
| NCI-H2228 | 0.254 | 0.281 | 0.328 | 0.387 | 0.483 | 0.392 | 0.507 | 0.788 | 0.547 | 0.856 | 0.996 | 1.02 | 0.825 | 0.746 | 0.74 | 0.693 | 0.944 |
| NCI-H2347 | 0.451 |  | 0.396 | 0.403 | 0.27 | 0.292 | 0.273 | 0.313 | 0.286 | 0.77 | 0.777 | 0.748 | 0.707 | 0.646 | 0.472 | 0.559 | 0.577 |
| NCI-H2405 | 0.407 | 0.377 | 0.415 | 0.405 | 0.628 | 0.585 | 0.731 | 0.719 | 0.79 | 0.801 | 0.829 | 0.781 | 0.88 | 0.992 | 0.865 | 0.841 | 0.914 |
| NCI-H3122 | 0.435 | 0.328 | 0.378 | 0.411 | 0.213 | 0.239 |  | 0.253 | 0.343 | 1.11 | 1.08 | 1.06 | 1.11 | 0.796 | 0.589 | 0.572 | 0.791 |
| PC-3 [JPC-3] | 0.534 | 0.481 | 0.436 | 0.467 |  | 0.712 | 0.674 | 0.641 | 0.568 | 0.832 | 0.748 | 0.767 | 0.825 | 1.42 | 1.15 | 1.16 | 1.26 |
| PC-14 | 0.653 | 0.55 | 0.716 | 0.698 |  | 0.66 | 0.698 | 0.717 | 0.634 | 1.19 | 0.981 | 1.04 | 1.17 | 0.234 | 0.261 | 0.222 | 0.225 |
| RERF-LC-KJ | 0.495 | 0.447 | 0.369 | 0.434 | 0.825 | 0.902 | 0.843 | 0.865 | 0.76 | 1.08 | 0.92 | 0.749 | 1.08 | 1.12 | 0.859 | 0.924 | 0.775 |
